Patent publication US20240300886A1, “ARYLCYCLOHEXYLAMINE DERIVATIVES AND THEIR USE IN THE TREATMENT OF PSYCHIATRIC DISORDERS” (GILGAMESH PHARMACEUTICALS, INC., priority 2021, published 2024)
pKi: −log10 of the molar value.

test system: not listed separately; experiment: Metabolic stability in mouse liver microsomes (MLM); type: in vitro ADME, CD-1 mice; details: male, CD-1, mouse, pooled mouse liver microsomes, pH 7.4, 1 μM compound, 0.50 mg protein/mL, NADPH
Protocol: (§1) MLM Stability. Pooled MLM from male CD-1 mice (XenoTech M1000) were used. Microsomal incubations were carried out in multi-well plates. Liver microsomal incubation medium consisted of PBS (100 mM, pH 7.4), MgCl2 (1 mM), and NADPH (1 mM), with 0.50 mg of liver microsomal protein per mL. Control incubations were performed by replacing the NADPH-cofactor system with PBS. Test compounds (1 μM, final solvent concentration 1.0%) were incubated with microsomes at 37° C. with constant shaking. Six time points over 60 minutes were analyzed, with 60 μL aliquots of the reaction mixture being drawn at each time point. The reaction aliquots were stopped by adding 180 μL of cold (4° C.) acetonitrile containing 200 ng/mL tolbutamide and 200 ng/mL labetalol as internal standards (IS), followed by shaking for 10 minutes, and then protein sedimentation by centrifugation at 4,000 rpm for 20 minutes at 4° C. Supernatant samples (80 μL) were diluted with water (240 μL) and analyzed for parent compound remaining using a fit-for-purpose liquid chromatography-tandem mass spectrometry (LC-MS/MS) method.
Data Analysis. The elimination constant (kel), half-life (t1/2) and intrinsic clearance (Clint) were determined in a plot of ln(AUC) versus […], using linear regression analysis.

Question: What does the source list for `CNC1(c2ccccc2Cl)CCCCC1=O` (racemic) [racemic ketamine, ketamine]?
Answer: half-life at 1 μM: 0.257 h; microsomal CLint at 1 μM: 90.1 µL/min/mg

Question: What does the source list for `N[C@@]1(c2ccc(F)cc2)CCCCC1=O` [Compound 1R, (R)-2-amino-2-(4-fluorophenyl)cyclohexan-1-one]?
Answer: half-life at 1 μM: > 2.42 h; microsomal CLint at 1 μM: < 9.6 µL/min/mg

Question: Which half-life at 1 μM does the source give for `N[C@]1(c2ccc(F)cc2)CCCCC1=O` [Compound 1S, (S)-2-amino-2-(4-fluorophenyl)cyclohexan-1-one] here?
Answer: > 2.42 h

Question: And the microsomal CLint at 1 μM?
Answer: < 9.6 µL/min/mg

Question: Which half-life at 1 μM does the source give for `CN[C@@]1(c2ccc(F)cc2)CCCCC1=O` [Compound 2R, (R)-2-(4-fluorophenyl)-2(methylamino)cyclohexan-1-one] here?
Answer: 2.12 h

Question: And the microsomal CLint at 1 μM?
Answer: 10.9 µL/min/mg

Question: What does the source list for `CN[C@]1(c2ccc(F)cc2)CCCCC1=O` [Compound 2S, (S)-2-(4-fluorophenyl)-2-(methylamino)cyclohexan-1-one]?
Answer: half-life at 1 μM: 1.79 h; microsomal CLint at 1 μM: 12.9 µL/min/mg

Question: Which half-life at 1 μM does the source give for `N[C@]1(c2cccc(F)c2)CCCCC1=O` [Compound 3S] here?
Answer: 2.05 h

Question: And the microsomal CLint at 1 μM?
Answer: 11.3 µL/min/mg

test system: not listed separately; experiment: Metabolic stability in rat liver microsomes (RLM); type: in vitro ADME, Sprague Dawley rats; details: male, Sprague Dawley, rat, pooled rat liver microsomes, pH 7.4, 1 μM compound, 0.50 mg protein/mL, NADPH
Protocol: as §1, with “RLM” for “MLM”, “Sprague Dawley rats” for “CD-1 mice”, “R1000)” for “M1000)”
(§2) Data Analysis. The elimination constant (kel), half-life (t1/2) and intrinsic clearance (Clint) were determined in a plot of […] versus time, using linear regression analysis.

Question: What does the source list for `CNC1(c2ccccc2Cl)CCCCC1=O` (racemic) [racemic ketamine, ketamine]?
Answer: half-life at 1 μM: 0.0933 h; microsomal CLint at 1 μM: 294 µL/min/mg

Question: For `N[C@@]1(c2ccc(F)cc2)CCCCC1=O` [Compound 1R, (R)-2-amino-2-(4-fluorophenyl)cyclohexan-1-one], which half-life at 1 μM is on record?
Answer: > 2.42 h

Question: And the microsomal CLint at 1 μM?
Answer: < 9.6 µL/min/mg

Question: For `N[C@]1(c2ccc(F)cc2)CCCCC1=O` [Compound 1S, (S)-2-amino-2-(4-fluorophenyl)cyclohexan-1-one], which half-life at 1 μM is on record?
Answer: > 2.42 h

Question: And the microsomal CLint at 1 μM?
Answer: < 9.6 µL/min/mg

Question: For `CN[C@@]1(c2ccc(F)cc2)CCCCC1=O` [Compound 2R, (R)-2-(4-fluorophenyl)-2(methylamino)cyclohexan-1-one], which half-life at 1 μM is on record?
Answer: 1.3 h

Question: What about the microsomal CLint at 1 μM of the same molecule?
Answer: 17.8 µL/min/mg

Question: With `CN[C@]1(c2ccc(F)cc2)CCCCC1=O` [Compound 2S, (S)-2-(4-fluorophenyl)-2-(methylamino)cyclohexan-1-one] as the molecule, how does the half-life at 1 μM read?
Answer: 1.01 h

Question: What about the microsomal CLint at 1 μM of the same molecule?
Answer: 22.8 µL/min/mg

Question: Which results are given for `N[C@]1(c2cccc(F)c2)CCCCC1=O` [Compound 3S]?
Answer: half-life at 1 μM: 1.58 h; microsomal CLint at 1 μM: 14.6 µL/min/mg

test system: MK-801 binding site of the N-methyl-D-aspartate receptor (NMDAR); experiment: NMDA receptor radioligand binding with [3H]MK-801; set-up: species or system Wistar rat; details: MK-801 site of NMDAR
Protocol: The binding affinities of disclosed compounds at the MK-801 binding site of the N-methyl-D-aspartate receptor (NMDAR) were determined in radioligand binding experiments (Table 13).
Radioligand Binding. Affinity of the test compounds for NMDAR was determined in radioligand binding experiments with [^3H]MK-801 by Eurofins Panlabs, Inc., using methods adapted from the literature (Javitt el al. 1987; Reynolds et al. 1989) and under the conditions described in Table 14.

Question: With `CN[C@@]1(c2ccc(F)cc2)CCCCC1=O` [Compound 2R, (R)-2-(4-fluorophenyl)-2(methylamino)cyclohexan-1-one] as the molecule, how does the “NMDAR binding potency relative to enantiomer 2S (less potent)” value read?
Answer: ~3 fold

same assay, conditions: [3H]MK-801 displacement, Wistar rat brain (minus cerebellum); read-out: NMDAR Ki (95% CI)

Question: With `N[C@]1(c2ccc(F)cc2)CCCCC1=O` [Compound 1S, (S)-2-amino-2-(4-fluorophenyl)cyclohexan-1-one] as the molecule, how does the pKi read?
Answer: 5.77

Question: With `CN[C@@]1(c2ccc(F)cc2)CCCCC1=O` [Compound 2R, (R)-2-(4-fluorophenyl)-2(methylamino)cyclohexan-1-one] as the molecule, how does the pKi read?
Answer: 5.48

Question: With `CN[C@]1(c2ccc(F)cc2)CCCCC1=O` [Compound 2S, (S)-2-(4-fluorophenyl)-2-(methylamino)cyclohexan-1-one] as the molecule, how does the pKi read?
Answer: 5.92

Question: With `N[C@]1(c2cccc(F)c2)CCCCC1=O` [Compound 3S] as the molecule, how does the pKi read?
Answer: 5.77

test system: not listed separately; experiment: Metabolic stability in human liver microsomes (HLM); type: in vitro ADME; details: 1 μM compound, 0.50 mg protein/mL, NADPH
Protocol: HLM Stability. Pooled HLM from adult male and female donors (Corning 452117) were used. Microsomal incubations were carried out in multi-well plates. Liver microsomal incubation medium consisted of PBS (100 mM, pH 7.4), MgCl2 (1 mM), and NADPH ([…]), with 0.50 mg of liver microsomal protein per mL. Control incubations were performed by replacing the NADPH-cofactor system with PBS. Test compounds (1 μM, final solvent concentration 1.0%) were incubated with microsomes at 37° C. with constant shaking, Six time points over 60 minutes were analyzed, with 60 μL aliquots of the reaction mixture being drawn at each time point. The reaction aliquots were stopped by adding 180 μL of cold (4° C.) acetonitrile containing 200 ng/mL tolbutamide and 200 ng/mL labetalol as internal standards (IS), followed by shaking for 10 minutes, and then protein sedimentation by centrifugation at 4,000 rpm for 20 minutes at 4° C. Supernatant samples (80 μL) were diluted with water (240 μL) and analyzed for parent compound remaining using a fit-for-purpose liquid chromatography-tandem mass spectrometry (LC-MS/MS) method.
as §2

Question: For `CNC1(c2ccccc2Cl)CCCCC1=O` (racemic) [racemic ketamine, ketamine], which Clint is on record?
Answer: 25.5 μL/min/m

Question: With `N[C@@]1(c2ccc(F)cc2)CCCCC1=O` [Compound 1R, (R)-2-amino-2-(4-fluorophenyl)cyclohexan-1-one] as the molecule, how does the Clint read?
Answer: <9.6 μL/min/m

Question: For `N[C@]1(c2ccc(F)cc2)CCCCC1=O` [Compound 1S, (S)-2-amino-2-(4-fluorophenyl)cyclohexan-1-one], which Clint is on record?
Answer: <9.6 μL/min/m

Question: For `CN[C@@]1(c2ccc(F)cc2)CCCCC1=O` [Compound 2R, (R)-2-(4-fluorophenyl)-2(methylamino)cyclohexan-1-one], which Clint is on record?
Answer: <9.6 μL/min/m

Question: Which Clint does the source give for `CN[C@]1(c2ccc(F)cc2)CCCCC1=O` [Compound 2S, (S)-2-(4-fluorophenyl)-2-(methylamino)cyclohexan-1-one] here?
Answer: <9.6 μL/min/m

Question: Which Clint does the source give for `N[C@]1(c2cccc(F)c2)CCCCC1=O` [Compound 3S] here?
Answer: <9.6 μL/min/m

same assay, conditions: both sexes, human, pooled human liver microsomes, pH 7.4, 1 μM compound, 0.50 mg protein/mL, NADPH

Question: For `CNC1(c2ccccc2Cl)CCCCC1=O` (racemic) [racemic ketamine, ketamine], which half-life at 1 μM is on record?
Answer: 0.907 h

Question: Which half-life at 1 μM does the source give for `N[C@@]1(c2ccc(F)cc2)CCCCC1=O` [Compound 1R, (R)-2-amino-2-(4-fluorophenyl)cyclohexan-1-one] here?
Answer: > 2.42 h

Question: Which half-life at 1 μM does the source give for `N[C@]1(c2ccc(F)cc2)CCCCC1=O` [Compound 1S, (S)-2-amino-2-(4-fluorophenyl)cyclohexan-1-one] here?
Answer: > 2.42 h

Question: Which half-life at 1 μM does the source give for `CN[C@@]1(c2ccc(F)cc2)CCCCC1=O` [Compound 2R, (R)-2-(4-fluorophenyl)-2(methylamino)cyclohexan-1-one] here?
Answer: > 2.42 h

Question: For `CN[C@]1(c2ccc(F)cc2)CCCCC1=O` [Compound 2S, (S)-2-(4-fluorophenyl)-2-(methylamino)cyclohexan-1-one], which half-life at 1 μM is on record?
Answer: > 2.42 h

Question: Which half-life at 1 μM does the source give for `N[C@]1(c2cccc(F)c2)CCCCC1=O` [Compound 3S] here?
Answer: > 2.42 h
